{"source": "patent US8293919B2", "about": "“Antibacterial sulfone and sulfoxide substituted heterocyclic urea compounds” (Crestone, Inc., priority 2007, dated 2012)", "format_in_all_cases": "cell-based", "key": {"[1]": {"system": "E. faecium", "assay": "Bactericidal activity"}, "[2]": {"system": "S. epidermidis", "assay": "Bactericidal activity"}, "[3]": {"system": "S. pneumoniae", "assay": "Bactericidal activity"}, "[4]": {"system": "macrolide-resistant S. pyogenes", "assay": "Antibacterial activity against drug-resistant strains", "method": "(§1) Compounds of the present invention were tested for antibacterial activity against a variety of pathogenic organisms including S. aureus, S. pneumoniae, S. pyogenes, E. faecalis, H. influenza and M. catarrhalis using a standard broth microdilution method to determine their minimum inhibitory concentrations (MICs). All compounds were tested using standard methods in accordance with CLSI guidelines (Clinical and Laboratory Standards Institute). Compounds described in Examples 1-5, 7-12, 14, 16-17, 19-30, 32-35, 37-42, 44-66, 69, 71-76, 79-84, and 87 had MIC's of 0.25-4.0 μg/mL against some strains of the major Gram-positive organisms S. aureus, S. pneumoniae, S. pyogenes, and E. faecalis.\n(§2) Compounds of the present invention were not compromised by existing resistance to all drug classes tested, including β-lactams, glycopeptides, oxazolidinones, macrolides, and fluoroquinolones. In particular, the compound described in Example 9 was active against methicillin- (oxacillin-) resistant S. aureus (MRSA), vancomycin-intermediate S. aureus (VISA), linezolid-resistant S. aureus, methicillin- (oxacillin-) resistant and mupirocin resistant S. epidermidis, macrolide-resistant S. pyogenes, macrolide-, penicillin-, and levofloxacin-resistant S. pneumoniae, vancomycin-, macrolide-, and ciprofloxacin-resistant E. faecalis (VRE) and vancomycin-, macrolide-, and ciprofloxacin-resistant E. faecium."}, "[5]": {"system": "vancomycin-, macrolide-, and ciprofloxacin-resistant E. faecalis (VRE)", "assay": "Antibacterial activity against drug-resistant strains", "method": "as §1, §2"}, "[6]": {"system": "vancomycin-, macrolide-, and ciprofloxacin-resistant E. faecium", "assay": "Antibacterial activity against drug-resistant strains", "method": "as §1, §2"}, "[7]": {"system": "resistant S. aureus (MRSA, VISA, linezolid-resistant)", "assay": "Antibacterial activity against drug-resistant strains", "method": "as §1, §2"}, "[8]": {"system": "macrolide-, penicillin-, and levofloxacin-resistant S. pneumoniae", "assay": "Antibacterial activity against drug-resistant strains", "method": "as §1, §2"}, "[9]": {"system": "methicillin- (oxacillin-) resistant and mupirocin resistant S. epidermidis", "assay": "Antibacterial activity against drug-resistant strains", "method": "as §1, §2"}, "[10]": {"system": "E. faecalis", "assay": "Bactericidal activity"}, "[11]": {"system": "S. aureus", "assay": "Bactericidal activity"}, "[12]": {"system": "S. pyogenes", "assay": "Bactericidal activity"}, "[13]": {"system": "clinically relevant resistant strains", "assay": "MIC in clinically relevant drug-resistant strains (all species together)", "method": "as §1, §2"}}, "data": [{"smiles": "CCCS(=O)(=O)Cc1csc(NC(=O)NCc2ccc(Cl)c(Cl)c2)n1", "note": "[Example 9, 1-(3,4-dichlorobenzyl)-3-(4-(propylsulfonylmethyl)thiazol-2-yl)urea]", "values": [{"measurement": "bactericidal effect", "setting": "[1]", "result": "bactericidal"}, {"measurement": "bactericidal effect", "setting": "[2]", "result": "bactericidal"}, {"measurement": "bactericidal effect", "setting": "[3]", "result": "bactericidal"}, {"measurement": "activity against resistant strain", "setting": "[4]", "result": "active"}, {"measurement": "activity against resistant strain", "setting": "[5]", "result": "active"}, {"measurement": "activity against resistant strain", "setting": "[6]", "result": "active"}, {"measurement": "activity against resistant strain", "setting": "[7]; linezolid-resistant S. aureus", "result": "active"}, {"measurement": "activity against resistant strain", "setting": "[7]; methicillin- (oxacillin-) resistant S. aureus (MRSA)", "result": "active"}, {"measurement": "activity against resistant strain", "setting": "[7]; vancomycin-intermediate S. aureus (VISA)", "result": "active"}, {"measurement": "activity against resistant strain", "setting": "[8]", "result": "active"}, {"measurement": "activity against resistant strain", "setting": "[9]", "result": "active"}, {"measurement": "bactericidal effect", "setting": "[10]", "result": "bactericidal"}, {"measurement": "bactericidal effect", "setting": "[11]", "result": "bactericidal"}, {"measurement": "bactericidal effect", "setting": "[12]", "result": "bactericidal"}, {"measurement": "MIC", "setting": "[13]; clinically relevant resistant strains", "result": "0.5 to 4", "unit": "µg/mL"}, {"measurement": "MICs in sensitive versus drug resistant strains", "setting": "[13]; sensitive versus drug resistant strains", "result": "comparable"}]}]}
